Measured values taken from patent US20140045823A1 (Neurocrine Biosciences, Inc., priority 2012, published 2014).

Molecular target: T1, human GPR119 (Homo sapiens, UniProt Q8TDV5)
T1 construct: expression vector for human GPR119 cDNA (Acc. No. NP_848566); expressed in transfected cells; Min-6/hGPR119
T1 sequence (Q8TDV5 1-335): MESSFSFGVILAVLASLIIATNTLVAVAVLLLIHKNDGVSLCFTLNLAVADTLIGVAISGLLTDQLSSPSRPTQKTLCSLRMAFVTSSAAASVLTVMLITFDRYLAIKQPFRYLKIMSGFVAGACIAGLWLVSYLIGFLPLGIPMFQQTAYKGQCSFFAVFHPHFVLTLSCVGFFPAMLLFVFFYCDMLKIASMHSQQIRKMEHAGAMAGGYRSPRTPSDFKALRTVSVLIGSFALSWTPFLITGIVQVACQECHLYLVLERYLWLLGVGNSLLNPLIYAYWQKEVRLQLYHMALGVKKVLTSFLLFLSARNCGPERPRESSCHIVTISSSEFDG
Experiment: AlphaScreen cAMP assay in MIN6 cells stably transfected with human GPR119
Type: cell-based
Details: Min-6/hGPR119 cells, 45 min at room temperature
Outline: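 MIN6 cells stably expressing human GPR119, seeded 10000/well and grown 24 h, were exposed to compound in pH 7.4 buffer with 0.5 mM IBMX, 0.1% BSA and 1% DMSO for 45 min at room temperature. Intracellular cAMP then measured by AlphaScreen.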

Structure (SMILES)	EC50 [µM]
COc1ccc(NC(=O)c2ccc(-c3ncc(C(=O)N(C4CC4)C4CCN(C(=O)OC(C)(C)C)CC4)cn3)c(F)c2)c(OC)c1 [Example 143, 4-(Cyclopropyl-{2-[4-(2,4-dimethoxy-phenylcarbamoyl)-2-fluoro-phenyl]-pyrimidine-5-carbonyl}-amino)-piperidine-1-carboxylic acid tert-butyl ester]	0.168
CC(C)(C)OC(=O)N1CCC(N(C(=O)c2cnc(-c3ccc(C(=O)NCC4(C)CCCO4)c(F)c3)nc2)C2CC2)CC1 (stereo not shown) [Example 144, 4-[Cyclopropyl-(2-{3-fluoro-4-[(2-methyl-tetrahydro-furan-2-ylmethyl)-carbamoyl]-phenyl}-pyrimidine-5-carbonyl)-amino]-piperidine-1-carboxylic acid tert-butyl ester]	0.23
CC(C)(C)OC(=O)N1CCC(N(C(=O)c2cnc(-c3ccc(C(=O)NC4CCOCC4)cc3F)nc2)C2CC2)CC1 [Example 145, 4-(Cyclopropyl-{2-[2-fluoro-4-(tetrahydro-pyran-4-ylcarbamoyl)-phenyl]-pyrimidine-5-carbonyl}-amino)-piperidine-1-carboxylic acid tert-buyl ester]	1
CC(C)(C)OC(=O)N1CCC(N(C(=O)c2cnc(-c3ccc(C(=O)NCC4CCCO4)c(F)c3)nc2)C2CC2)CC1 (stereo not shown) [Example 146, 4-[Cyclopropyl-(2-{3-fluoro-4-[(tetrahydro-furan-2-ylmethyl)-carbamoyl]-phenyl}-pyrimidine-5-carbonyl)-amino]-piperidine-1-carboxylic acid tert-butyl ester]	0.064
CC(C)(C)OC(=O)N1CCC(N(C(=O)c2cnc(-c3ccc(C(=O)N4CC(F)(F)C4)cc3F)nc2)C2CC2)CC1 [Example 147, 4-(Cyclopropyl-{2-[4-(3,3-difluoro-azetidine-1-carbonyl)-2-fluoro-phenyl]-pyrimidine-5-carbonyl}-amino)-piperidine-1-carboxylic acid tert-butyl ester]	0.159
CN(CC1CCOC1)C(=O)c1ccc(-c2ncc(C(=O)N(C3CC3)C3CCN(C(=O)OC(C)(C)C)CC3)cn2)c(F)c1 (stereo not shown) [Example 148, 4-[Cyclopropyl-(2-{2-fluoro-4-[methyl-(tetrahydro-furan-3-ylmethyl)-carbamoyl]-phenyl}-pyrimidine-5-carbonyl)-amino]-piperidine-1-carboxylic acid tert-butyl ester]	0.395
COCC1CCCCN1C(=O)c1ccc(-c2ncc(C(=O)N(C3CC3)C3CCN(C(=O)OC(C)(C)C)CC3)cn2)cc1F (stereo not shown) [Example 149, 4-(Cyclopropyl-{2-[3-fluoro-4-(2-methoxymethyl-piperidine-1-carbonyl)-phenyl]-pyrimidine-5-carbonyl}-amino)-piperidine-1-carboxylic acid tert-butyl ester]	0.297
CC(O)c1cccc(NC(=O)c2ccc(-c3ncc(C(=O)N(C4CC4)C4CCN(C(=O)OC(C)(C)C)CC4)cn3)cc2F)c1 (stereo not shown) [Example 150, 4-[Cyclopropyl-(2-{3-fluoro-4-[3-(1-hydroxy-ethyl)-phenylcarbamoyl]-phenyl}-pyrimidine-5-carbonyl)-amino]-piperidine-1-carboxylic acid tert-butyl ester]	0.238
CC(C)(C)OC(=O)N1CCC(N(C(=O)c2cnc(-c3ccc(C(=O)NCc4cocn4)c(F)c3)nc2)C2CC2)CC1 [Example 151, 4-[Cyclopropyl-(2-{3-fluoro-4-[(oxazol-4-ylmethyl)-carbamoyl]-phenyl}-pyrimidine-5-carbonyl)-amino]-piperidine-1-carboxylic acid tert-butyl ester]	0.123
CC(C)(C)OC(=O)N1CCC(N(C(=O)c2cnc(-c3ccc(C(=O)NCC4CCCCO4)c(F)c3)nc2)C2CC2)CC1 (stereo not shown) [Example 152, 4-[Cyclopropyl-(2-{3-fluoro-4-[(tetrahydro-pyran-2-ylmethyl)-carbamoyl]-phenyl}-pyrimidine-5-carbonyl)-amino]-piperidine-1-carboxylic acid tert-butyl ester]	0.109
CC(C)(C)OC(=O)N1CCC(N(C(=O)c2cnc(-c3ccc(C(=O)Nc4ccccc4)c(F)c3)nc2)C2CC2)CC1 [Example 153, 4-{Cyclopropyl-[2-(3-fluoro-4-phenylcarbamoyl-phenyl)-pyrimidine-5-carbonyl]-amino}-piperidine-1-carboxylic acid tert-butyl ester]	0.109
CC(C)(O)CNC(=O)c1ccc(-c2ncc(C(=O)N(C3CC3)C3CCN(C(=O)OC(C)(C)C)CC3)cn2)cc1F [Example 154, 4-(Cyclopropyl-{2-[3-fluoro-4-(2-hydroxy-2-methyl-propylcarbamoyl)-phenyl]-pyrimidine-5-carbonyl}-amino)-piperidine-1-carboxylic acid tert-butyl ester]	0.508
CC(C)(C)OC(=O)N1CCC(N(C(=O)c2cnc(-c3ccc(C(=O)N4CCOCC4)c(F)c3)nc2)C2CC2)CC1 [Example 155, 4-(Cyclopropyl-{2-[3-fluoro-4-(morpholine-4-carbonyl)-phenyl]-pyrimidine-5-carbonyl}-amino)-piperidine-1-carboxylic acid tert-butyl ester]	0.448
COCc1cccc(NC(=O)c2ccc(-c3ncc(C(=O)N(C4CC4)C4CCN(C(=O)OC(C)(C)C)CC4)cn3)cc2F)c1 [Example 156, 4-(Cyclopropyl-{2-[3-fluoro-4-(3-methoxymethyl-phenylcarbamoyl)-phenyl]-pyrimidine-5-carbonyl}-amino)-piperidine-1-carboxylic acid tert-butyl ester]	0.114
COC(C)CN(C)C(=O)c1ccc(-c2ncc(C(=O)N(C3CC3)C3CCN(C(=O)OC(C)(C)C)CC3)cn2)c(F)c1 (stereo not shown) [Example 157, 4-[Cyclopropyl-(2-{2-fluoro-4-[(2-methoxy-propyl)-methyl-carbamoyl]-phenyl}-pyrimidine-5-carbonyl)-amino]-piperidine-1-carboxylic acid tert-butyl ester]	0.401
CN(CC1CCOCC1)C(=O)c1ccc(-c2ncc(C(=O)N(C3CC3)C3CCN(C(=O)OC(C)(C)C)CC3)cn2)cc1F [Example 158, 4-[Cyclopropyl-(2-{3-fluoro-4-[methyl-(tetrahydro-pyran-4-ylmethyl)-carbamoyl]-phenyl}-pyrimidine-5-carbonyl)-amino]-piperidine-1-carboxylic acid tert-butyl ester]	0.359
COc1ccc(NC(=O)c2ccc(-c3ncc(C(=O)N(C4CC4)C4CCN(C(=O)OC(C)(C)C)CC4)cn3)c(F)c2)cn1 [Example 159, 4-(Cyclopropyl-{2-[2-fluoro-4-(6-methoxy-pyridin-3-ylcarbamoyl)-phenyl]-pyrimidine-5-carbonyl}-amino)-piperidine-1-carboxylic acid tert-butyl ester]	0.303
COCCN(C)C(=O)c1ccc(-c2ncc(C(=O)N(C3CC3)C3CCN(C(=O)OC(C)(C)C)CC3)cn2)cc1F [Example 160, 4-[Cyclopropyl-(2-{3-fluoro-4-[(2-methoxy-ethyl)-methyl-carbamoyl]-phenyl}-pyrimidine-5-carbonyl)-amino]-piperidine-1-carboxylic acid tert-butyl ester]	0.229
CC(C)(C)OC(=O)N1CCC(N(C(=O)c2cnc(-c3ccc(C(=O)N4CCC[C@@H]4C#N)c(F)c3)nc2)C2CC2)CC1 [Example 161, 4-({2-[4-(2-Cyano-pyrrolidine-1-carbonyl)-3-fluoro-phenyl]-pyrimidine-5-carbonyl}-cyclopropyl-amino)-piperidine-1-carboxylic acid tert-butyl ester]	0.278
